Source: BindingDB's records for doi:10.1016/s0960-894x(99)00093-1 (Sankyo, 1999)
pIC50: −log10 of the molar value.

Experiments:
[1] = target: T1, Substance-K receptor (Cavia porcellus, UniProt Q64077); assay: ChEBML_142706
T1 sequence (Q64077 whole entry): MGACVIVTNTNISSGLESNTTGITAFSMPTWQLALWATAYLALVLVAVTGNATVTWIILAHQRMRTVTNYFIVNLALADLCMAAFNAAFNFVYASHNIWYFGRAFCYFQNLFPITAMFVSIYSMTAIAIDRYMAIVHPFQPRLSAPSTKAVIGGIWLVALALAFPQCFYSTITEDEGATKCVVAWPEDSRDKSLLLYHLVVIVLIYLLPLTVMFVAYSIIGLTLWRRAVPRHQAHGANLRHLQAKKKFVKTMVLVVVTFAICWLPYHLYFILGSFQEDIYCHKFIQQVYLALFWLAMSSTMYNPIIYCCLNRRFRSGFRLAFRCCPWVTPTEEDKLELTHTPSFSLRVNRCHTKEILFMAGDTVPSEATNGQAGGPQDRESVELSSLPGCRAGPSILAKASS
Description: (§1) Inhibitory activity against Neurokinin 2 (NK2) receptor from guinea pig ileum

[2] = target: T2, Substance-P receptor (Cavia porcellus, UniProt P30547); assay: ChEBML_144914
T2 sequence (P30547 whole entry): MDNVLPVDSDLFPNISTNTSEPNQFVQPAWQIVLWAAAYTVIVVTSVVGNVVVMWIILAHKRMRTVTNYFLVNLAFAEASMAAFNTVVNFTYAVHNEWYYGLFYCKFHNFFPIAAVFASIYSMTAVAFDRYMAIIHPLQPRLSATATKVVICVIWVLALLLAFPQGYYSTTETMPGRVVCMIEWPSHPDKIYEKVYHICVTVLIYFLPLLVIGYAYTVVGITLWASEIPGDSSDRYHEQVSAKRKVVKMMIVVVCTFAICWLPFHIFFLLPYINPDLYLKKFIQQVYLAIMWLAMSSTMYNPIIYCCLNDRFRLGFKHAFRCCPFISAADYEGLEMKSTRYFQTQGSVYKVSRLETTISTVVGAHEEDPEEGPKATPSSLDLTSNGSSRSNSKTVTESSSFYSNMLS
Description: (§2) Inhibitory activity against Neurokinin 1 (NK1) receptor from guinea pig lung

[3] = target: T1, Substance-K receptor; assay: as §1
[4] = target: T2, Substance-P receptor; assay: as §2

pIC50 [3]	SMILES	pIC50 [4]	also measured
	COc1cc(C(=O)N2CO[C@](CCN3CCC(C(N)=O)(c4ccccc4)CC3)(c3ccc(Cl)c(Cl)c3)C2)cc(OC)c1OC		pIC50 [1]: 7.04
	COc1cc(C(=O)N2CO[C@](CCN3CCC4(CC3)NC(=O)Cc3ccccc34)(c3ccc(F)c(F)c3)C2)cc(OC)c1OC		pIC50 [2]: 7.55
	COc1cc(C(=O)N2CO[C@](CCN3CCC4(CC3)c3ccccc3C[S+]4[O-])(c3ccc(Cl)c(Cl)c3)C2)cc(OC)c1OC (some centres undefined)		pIC50 [1]: 8.12
	COc1cc(C(=O)N2CO[C@](CCN3CCC4(CC3)c3ccccc3C[S+]4[O-])(c3ccc(F)c(F)c3)C2)cc(OC)c1OC (some centres undefined)		pIC50 [2]: 7.80
	COc1cc(C(=O)N2CO[C@](CCN3CCC(C(N)=O)(c4ccccc4)CC3)(c3ccc(F)c(F)c3)C2)cc(OC)c1OC	8.00	
	COc1cc(C(=O)N2CO[C@](CCN3CCC(C(N)=O)(c4ccccc4)CC3)(c3ccc(F)cc3)C2)cc(OC)c1OC	7.57	
7.28	COc1cc(C(=O)N2CO[C@](CCN3CCC(C(=O)N4CCOCC4)(c4ccccc4)CC3)(c3ccc(Cl)c(Cl)c3)C2)cc(OC)c1OC		
	COc1cc(C(=O)N2CO[C@](CCN3CCC(C(N)=O)(c4ccccc4)CC3)(c3ccc(Cl)cc3)C2)cc(OC)c1OC	7.57	
	COc1cc(C(=O)N2CO[C@](CCN3CCC4(CC3)C(=O)N(C)c3ccccc34)(c3ccc(Cl)c(Cl)c3)C2)cc(OC)c1OC		pIC50 [1]: 7.47
7.13	COc1cc(C(=O)N2CO[C@](CCN3CCN(c4ccc(C(C)=O)cc4)CC3)(c3ccc(Cl)c(Cl)c3)C2)cc(OC)c1OC	7.74	
	COc1cc(C(=O)N2CO[C@](CCN3CCC(C(=O)N(C)C)(c4ccccc4)CC3)(c3ccc(F)c(F)c3)C2)cc(OC)c1OC		pIC50 [2]: 7.57
8.14	COc1cc(C(=O)N2CO[C@](CCN3CCC4(CC3)C[S+]([O-])c3ccccc34)(c3ccc(Cl)c(Cl)c3)C2)cc(OC)c1OC (some centres undefined)		

SMILES	pIC50 [3]	pIC50 [4]	also measured
COc1cc(C(=O)N2CO[C@](CCN3CCC(C(=O)N(C)C)(c4ccccc4)CC3)(c3ccc(Cl)cc3)C2)cc(OC)c1OC	8.33		
